Source: article PMC9021288 (Nature Communications, 2022)
Several values for one entry are separate records, joined by “and”; a condition that tells them apart may be missing. Identical values can stand only once. Like-named read-outs stand apart in the source and are kept apart here.

Legend:
[1] = test system: human G6PD-A-deficient RBCs; experiment: Hemolytic toxicity in NSG mice engrafted with G6PD-deficient human RBCs; details: Primaquine group
Experimental: Hemolytic toxicity was determined in female NSG mice (Jackson Laboratories) using erythrocytes from a G6PD-A-deficient blood donor (0.4 u/g hemoglobin).

in vitro [2] = details: human
Excerpt: (§1) Briefly, cryopreserved human primary hepatocytes were thawed and cultured as described above.

[3] = test system: P. falciparum Pf3D7^0087/N9; experiment: Single dose in vivo efficacy in humanized NSG mice; design: species or system Plasmodium falciparum
Experimental: The effect of pantothenamides on P. falciparum Pf3D7^0087/N9 [66] in vivo was assessed in female NSG mice (NODscidIL2Rγ^null) at the Swiss Tropical and Public Health Institute (Basel, Switzerland) as described previously (Supplementary Table 30)[15],[67]. Briefly, humanized mice were engrafted daily with human erythrocyte suspensions from days -11 to day 6. […] On day 4, groups of n = 2 mice were treated with a single dose pantothenamides or chloroquine (50 mg/kg) by oral gavage. […] Serial dilutions were prepared in the same solvent to concentrations 50 times higher than the corresponding CAL and QC concentrations. The concentrations were calculated under consideration of purity and salt factor. The spiking of the CAL and QC sample were performed at room temperature.

[4] = test system: P. falciparum NF54 rings and schizonts; experiment: Stage-specific activity on synchronized ring and schizont cultures; type: cell-based, Plasmodium falciparum
Experimental: Asynchronous NF54 parasites were cultured in a semi-automated shaker system[63] and synchronized once with 5% D-sorbitol. […] This yielded a parasite culture with ≥ 90% rings. To assess the schizont-stage activity of MMV693186, the initial synchronized culture was treated again with sorbitol 7 h later. Subsequently, parasites were cultured for another 17 h to yield a parasite culture of ≥ 90% early schizont stages. The ring and schizont synchronized cultures were diluted to 0.5% and then incubated with either 50 nM DHA or 50 nM MM693183 for 24 h in duplicate. Subsequently, the drug was washed out and parasites were cultured for another 24 h. Parasitemia was determined using Giemsa-stained thin smears at 0 h, 24 h, and 48 h after drug exposure.

AcAS (PF3D7_0627800) = experiment: Cellular thermal shift assay on parasite lysate; type: binding, Plasmodium falciparum; details: 1 µM
Experimental: A cellular thermal shift assay (CETSA) was performed on infected RBCs or parasite lysates as described previously.
For a CETSA on parasite lysates, synchronized trophozoite cultures (ACS11-tagged parasites) were treated with 0.1% saponin to lyse the RBCs, and washed three times in PBS. Subsequently, parasite pellets were resuspended in 1× lysis buffer and subjected to three flash-freeze-thaw cycles using liquid nitrogen, followed by mechanical shearing using a syringe with a 25 G and a 30 G needle. Samples were spun down at 18,000 g for 20 min at 4 °C. The supernatant was diluted to 2.1 mg/ml protein concentration, and 100 µl was added to each PCR tube containing 1 µl of the compound at a 100× concentration (final concentration of 1 µM). Samples were incubated for 30 min at room temperature, subjected to a thermal gradient for 3 min on a pre-heated PCR machine, followed by 4 °C for 3 min. Samples were spun down at 18,000 g for 20 min at 4 °C and the soluble fraction was flash-frozen in liquid nitrogen and stored at −80 °C.
Samples were loaded on an 8% SDS-Page gel (Genscript) with 4×10^6 infected RBCs or 50 µg protein for the parasite lysate approach. Proteins were transferred to a nitrocellulose membrane that was blocked with 5% skim milk (Sigma) in PBS overnight and incubated with rabbit antiserum against AcAS (1:1000) for 1 h. Subsequently, membranes were washed three times with PBS-Tween for 5 min, followed by incubation with secondary horseradish peroxide (HRP)-conjugated goat anti-rabbit antibodies (Dako P0448, 1:1000) for 1 h. Blots were then washed three times with PBS-Tween for 5 min and twice with PBS. Following a 5-min incubation with Clarity Max Western ECL Substrate (BioRad), protein blots were imaged using the ImageQuant LAS4000 (GE Healthcare). The band intensity was quantified using Fiji software.

[5] = Solubility in PBS, FaSSIF, FeSSIF; type: physicochemical; details: unknown samples, relative dilution factor 10000, duplicates
P. falciparum 3D7 = experiment: Parasite reduction rate (PRR) in vitro killing rate assay; type: cell-based, Plasmodium falciparum
Experimental: The antimalarial killing rate was determined by GlaxoSmithKline (GSK, Tres Cantos, Madrid, Spain) as described previously. […] The number of viable parasites was determined on day 21 and 28 by counting the wells with parasite growth.

HepG2 cells = experiment: HepG2 viability (resazurin); details: human, 10 µM
Experimental: Safety studies were performed by commercial services using their standard protocols. […] Genotoxicity was investigated using the Ames test (Bacterial Reverse Mutation Assay) (Covance Laboratories Ltd, North Yorkshire, England). In vitro mammalian cell micronucleus screening assay was studied in human peripheral blood lymphocytes (BioReliance Corporation, Rockville, USA). Cardiotoxicity was determined against the hERG channel in an automated patch clamp assay using the Qpatch or against the hNaV 1.5, hKV 1.5 and hCaV 1.2 using a manual patch-clamp technique (Metrion Biosciences, Cambridge, UK). Cytotoxicity in human and rat primary hepatocytes was assessed using the CellTiter-Blue assay performed by commercial services (KaLy-Cell). The viability of HepG2 cells was monitored through the addition of 1 mM resazurin. Following 6 h incubation, the relative amount of reduced resazurin was detected in a fluorimeter and compared to the assay controls (vehicle: 0.1% DMSO and positive control: 10 µM puromycin).

[6] = mouse, plasma
[7] = human, plasma
[8] = dog, plasma
[9] = rat, plasma
in vitro [10] = details: human; remark: listed apart in the source
[11] = test system: cryopreserved human primary hepatocytes; experiment: Human hepatocyte clearance (relay assay); details: 10 µM, single replicates
Excerpt: as §1

COc1cc(NC(C)CCCN)c2ncccc2c1 (stereo not drawn) [Primaquine]
Human RBCs ([1]; day 0, individual mice): 74.3% and 71.3% and 74.2% and 65% | Reticulocytes ([1]; day 0, individual mice): 0.41% and 0.56% and 0.49% and 0.54% | Human RBCs ([1]; day 4, individual mice): 54.6% and 45.9% and 58.7% and 49.1% | Reticulocytes ([1]; day 4, individual mice): 5.2% and 2.88% and 7.64% and 5.35% | Human RBCs ([1]; day 7, individual mice): 13.5% and 5.35% and 9.52% and 4.33% | Reticulocytes ([1]; day 7, individual mice): 4.47% and 5.69% and 5.07% and 8.31% | Hematocrit ([1]; individual mice): 31.37% and 28.81% and 29.69% and 29.51% | Spleen weight ([1]; individual mice): 1.219 % of body weight and 1.099 % of body weight and 1.08 % of body weight and 1.161 % of body weight

CCCCNC(=O)NS(=O)(=O)c1ccc(C)cc1 [Tolbutamide]
remaining at 0 h, 10 µM (in vitro [2]; hepatocytes, % Remaining): 100% | remaining at 3 h, 10 µM (in vitro [2]; hepatocytes, % Remaining): 98.8%

CCN(CC)CCCC(C)Nc1ccnc2cc(Cl)ccc12 (stereo not drawn) [CQ, chloroquine, reference compound]
Parasitemia ([3]; day 5 post infection, 50 mg/kg p.o. on day 4, per mouse, 50 mg/kg): 0.12 and 0.07 | Parasitemia ([3]; day 6 post infection, per mouse): 0 and 0.01 | Parasitemia ([3]; day 7 post infection, per mouse): 0

C[C@H]1[C@@H](O)O[C@@H]2O[C@@]3(C)CC[C@H]4[C@H](C)CC[C@@H]1[C@@]24OO3 [DHA, dihydroartemisinin]
Parasitemia, rings culture ([4]; Time (h) 0): 0.4 | Parasitemia, rings culture ([4]; Time (h) 24): 0 | Parasitemia, rings culture ([4]; Time (h) 48): 0 | Parasitemia, schizonts culture ([4]; Time (h) 0): 0.2 | Parasitemia, schizonts culture ([4]; Time (h) 24): 0 | Parasitemia, schizonts culture ([4]; Time (h) 48): 0 | AcAS band intensity normalized to DMSO at 37 °C (AcAS (PF3D7_0627800); 37 °C): 142.951 | AcAS band intensity normalized to DMSO at 37 °C (AcAS (PF3D7_0627800); 42 °C): 180.287 | AcAS band intensity normalized to DMSO at 37 °C (AcAS (PF3D7_0627800); 47 °C): 80.1639 | AcAS band intensity normalized to DMSO at 37 °C (AcAS (PF3D7_0627800); 52 °C): 24.4159

C[C@@H](CNC(=O)[C@H](O)C(C)(C)CO)NC(=O)c1cc(F)c(F)cc1F [MMV693183-06]
Calculated concentration (solubility sample) ([5]; FaSSIF): 9179.95 ppm and 9316.55 ppm | Calculated concentration (solubility sample) ([5]; FeSSIF): 9110.79 ppm and 8990.98 ppm | Calculated concentration (solubility sample) ([5]; PBS): 6813.58 ppm and 7461.45 ppm

CCc1nc(N)nc(N)c1-c1ccc(Cl)cc1 [Pyrimethamine]
Average (log parasites +1) (P. falciparum 3D7; 24 h): 4.95 | Average (log parasites +1) (P. falciparum 3D7; 48 h): 1.57 | Average (log parasites +1) (P. falciparum 3D7; 72h): 0.53 | Average (log parasites +1) (P. falciparum 3D7; 96h): 0.00 | log (parasites +1) (P. falciparum 3D7; 96h): 0 | parasites (P. falciparum 3D7; 96h): 0 | Average (log parasites +1) (P. falciparum 3D7; 120h): 0.00 | log (parasites +1) (P. falciparum 3D7; 120h): 0 | parasites (P. falciparum 3D7; 120h): 0

COc1ccc(C[C@H](N)C(=O)N[C@H]2[C@@H](O)[C@H](n3cnc4c(N(C)C)ncnc43)O[C@@H]2CO)cc1 [puromycin]
HepG2 viability assay, raw signal, MIN average (HepG2 cells): 764

C[C@@H](CNC(=O)[C@H](O)C(C)(C)CO)NC(=O)c1cc(F)c(F)cc1F [MMV693183-03]
% Bound Avg [6]: 33.4% | % Bound n=1 [6]: 32.91% | % Bound n=2 [6]: 33.90% | % Free n=1 [6]: 67.09% | % Free n=2 [6]: 66.10% | % Bound Avg [7]: 51.9% | % Bound n=1 [7]: 52.54% | % Bound n=2 [7]: 51.24% | % Free n=1 [7]: 47.46% | % Free n=2 [7]: 48.76% | % Bound Avg [8]: 41.3% | % Bound n=1 [8]: 42.38% | % Bound n=2 [8]: 40.31% | % Free n=1 [8]: 57.62% | % Free n=2 [8]: 59.69% | % Bound Avg [9]: 39.9% | % Bound n=1 [9]: 39.84% | % Bound n=2 [9]: 39.89% | % Free n=1 [9]: 60.16% | % Free n=2 [9]: 60.11%

NC(=O)N1c2ccccc2C=Cc2ccccc21 [Carbamazepine]
Papp A→B at 9000 Sec, 2 µM (in vitro [10]; Caco-2, pH 7.4): 25 ×10⁻⁶ cm/s | Papp B→A at 9000 Sec, 2 µM (in vitro [10]; Caco-2, pH 7.4): 28.9 ×10⁻⁶ cm/s | efflux ratio at 9000 Sec, 2 µM (in vitro [10]; Caco-2, pH 7.4): 1.2 | Papp at 9000 Sec, 2 µM (in vitro [10]; Caco-2, pH 7.4, Papp AVG): 25 ×10⁻⁶ cm/s | Papp at 9000 Sec, 2 µM (in vitro [10]; Caco-2, pH 7.4, Papp n=1, 2): 24.3 ×10⁻⁶ cm/s

CCOc1ccc2ccc(=O)oc2c1 [7-Ethoxycoumarin]
% Remaining ([11]; hepatocyte donor HC06, 3 h): 76.9% | % Remaining ([11]; hepatocyte donor HC06, 6 h): 57.5% | % Remaining ([11]; hepatocyte donor HC425, 6 h): 78.5% | % Remaining ([11]; hepatocyte donor HC425, 24 h): 39.0% | % Remaining ([11]; hepatocyte donor HC425, 48 h): 22.9% | % Remaining ([11]; hepatocyte donor HC425, 72 h): 4.8% | % Remaining ([11]; hepatocyte donor HC1010, 3 h): 50.4% | % Remaining ([11]; hepatocyte donor HC1010, 6 h): 26.9% | remaining at 0 h, 10 µM (in vitro [2]; % Remaining, 10 µM, hepatocyte donor HC02, 0 h, single replicates): 100% | remaining at 6 h, 10 µM (in vitro [2]; % Remaining, 10 µM, hepatocyte donor HC02, 6 h, single replicates): 2.2% | remaining at 0 h, 10 µM (in vitro [2]; % Remaining, 10 µM, hepatocyte donor HC06, 0 h, single replicates): 100% | remaining at 3 h, 10 µM (in vitro [2]; % Remaining, 10 µM, hepatocyte donor HC06, 3 h, single replicates): 80.9% | remaining at 6 h, 10 µM (in vitro [2]; % Remaining, 10 µM, hepatocyte donor HC06, 6 h, single replicates): 56.3% | remaining at 0 h, 10 µM (in vitro [2]; % Remaining, 10 µM, hepatocyte donor HC425, 0 h, single replicates): 100% | remaining at 6 h, 10 µM (in vitro [2]; % Remaining, 10 µM, hepatocyte donor HC425, 6 h, single replicates): 72.1% | remaining at 24 h, 10 µM (in vitro [2]; % Remaining, 10 µM, hepatocyte donor HC425, 24 h, single replicates): 33.1% | remaining at 0 h, 10 µM (in vitro [2]; % Remaining, 10 µM, hepatocyte donor HC1010, 0 h, single replicates): 100% | remaining at 3 h, 10 µM (in vitro [2]; % Remaining, 10 µM, hepatocyte donor HC1010, 3 h, single replicates): 46.7% | remaining at 6 h, 10 µM (in vitro [2]; % Remaining, 10 µM, hepatocyte donor HC1010, 6 h, single replicates): 29.5% | remaining at 24 h, 10 µM (in vitro [2]; % Remaining, 10 µM, hepatocyte donor HC1010, 24 h, single replicates): 2% | remaining at 48 h, 10 µM (in vitro [2]; cryopreserved human primary hepatocytes (relay assay), % Remaining, 10 µM, hepatocyte donor HC425, 48 h, single replicates): 25.4% | remaining at 72 h, 10 µM (in vitro [2]; cryopreserved human primary hepatocytes (relay assay), % Remaining, 10 µM, hepatocyte donor HC425, 72 h, single replicates): 8.2% | hepatocyte CLint (in vitro [2]; cryopreserved human primary hepatocytes (relay assay), CLint, donor HC02): 21.2 µL/min/1e6 cells | hepatocyte CLint (in vitro [2]; cryopreserved human primary hepatocytes (relay assay), CLint, donor HC06): 3.14 µL/min/1e6 cells | hepatocyte CLint at 10 µM (in vitro [2]; cryopreserved human primary hepatocytes (relay assay), CLint, donor HC425): 1.19 µL/min/1e6 cells | hepatocyte CLint (in vitro [2]; cryopreserved human primary hepatocytes (relay assay), CLint, donor HC1010): 6.28 µL/min/1e6 cells
